From publication PMC5306082, “Physiologically based kinetic modeling of the bioactivation of myristicin” (Archives of Toxicology, 2016)

Columns and labels:
Type in all cases: in vitro ADME
[1] = Oxidation of 1′-hydroxymyristicin to 1′-oxomyristicin, rat liver microsomes; settings: rat vs human
Method: The kinetic constants for the enzymatic conversion of 1′-hydroxymyristicin to 1′-oxomyristicin were determined using incubation mixtures containing (final concentrations) 3 mM NAD^+, 2 mM GSH, and 1 mg/ml rat or human liver microsomes in 0.2 M Tris–HCl (pH 7.4). GSH was added to the incubation mixtures to trap the reactive 1′-oxo metabolite formed after oxidation of 1′-hydroxymyristicin. The level of GSH in the incubations was optimized in a previous study to obtain maximum scavenging of 1′-oxoestragole (Punt et al. [2009]). To this end, incubations were performed in the presence of increasing concentrations of GSH, ranging from 2 to 10 mM. […] Kinetic constants for this reaction in rat and human liver were derived by performing incubations with NAD^+ as a cofactor, given that in rat and human liver, NAD^+ is mainly present in an oxidized form with levels of NAD^+ being much higher than those of NADH. In a previous study, it was shown that the highest level of 1′-hydroxy alkenylbenzene oxidation occurs in incubations with microsomes in the presence of NAD^+ as cofactor. […] The enzyme responsible for the oxidation may be 17β-hydroxysteroid dehydrogenase type 2 (17β-HSD2) (Punt et al. [2010]). Prior to the addition of 1′-hydroxymyristicin at final concentrations ranging between 10 and 4000 μM to the incubation mixture from 100 times concentrated stock solutions in DMSO, samples were pre-incubated for 1 min at 37 °C. Reactions were terminated after 10 min of incubation at 37 °C by adding 25 μl (0.25 times the incubation volume) of ice-cold ACN. The formation of the GSH conjugate of 1′-oxomyristicin (GS-1′-oxomyristicin) was linear with time and microsomal protein concentration under the experimental conditions used. Blank incubations were performed without the cofactor NAD^+. Incubations were performed in triplicate. All samples were centrifuged for 5 min at 13,000×g, and the supernatant was stored at −20 °C until UPLC analysis.
Quantification of GS-1′-oxomyristicin was based on a calibration curve of the GSH adduct of the synthesized 1′-oxymyristicin made as previously described (van den Berg et al. [2012]; Punt et al. [2009]; Martati et al. [2011]; Al-Subeihi et al. [2011]). In short, a 60 μM concentration of the synthetic standard of 1′-oxomyristicin, dissolved in ACN, was incubated with different concentrations of GSH (i.e., 0–20 μM) in 0.2 M Tris–HCl (pH 7.4) for 6 h at 37 °C, resulting in full conversion of the GSH to GS-1′-oxymyristicin. Quantification was done by comparing the peak areas of the formed GS-1′-oxo metabolite in the incubation mixtures with peak areas of the GS-1′-oxymyristicin calibration curve thus obtained at a wavelength of 212 nm. The gradient for analysis of the metabolite consisted of a mixture of ACN and ultrapure water containing 0.1 % (v/v) TFA. The flow rate was 0.6 ml/min, The gradient started with 10 % ACN, increased to 30 % ACN over 2.5 min, after which ACN was increased to 80 % over 0.5 min, kept at 80 % for 0.5 min, followed by a decrease to 10 % over 0.5 min, and finally kept at 10 % for 0.5 min.

[2] = Sulfonation of 1′-hydroxymyristicin, human liver S9; settings: S9 protein yield 143 mg/g liver
Method: (§1) The formation of 1′-sulfoxymyristicin was determined using incubations containing male rat liver Sprague–Dawley or pooled gender human liver S9 proteins, PAPS as a cofactor, and GSH, which acts as a scavenger of the reactive carbocation formed due to the unstable nature of the 1′-sulfoxy metabolite in an aqueous environment (van den Berg et al. [2012]; Martati et al. [2011]; Al-Subeihi et al. [2011]). Incubation mixtures containing (final concentrations) 10 mM of GSH, 0.2 mM of PAPS, and 3 mg/ml of S9 proteins in 0.1 M potassium phosphate (pH 8.2) were pre-incubated for 1 min at 37 °C. After the pre-incubation, 1′-hydroxymyristicin dissolved in DMSO was added in final concentrations ranging between 10 and 6000 μM while keeping the final content of DMSO at 1 % (v/v). The reaction was terminated after 360 min of incubation by adding 25 μl (0.25 times the incubation volume) of ice-cold ACN. The formation of the GSH conjugate of 1′-sulfoxymyristicin was linear with time and S9 protein concentrations under the experimental conditions used. Blank incubations were performed in the absence of PAPS. Incubations were performed in triplicate. All samples were centrifuged for 5 min at 16,000×g, and the supernatant was stored at −20 °C until ultra-performance liquid chromatography (UPLC) analysis.
(§2) Quantification of 1′-sulfoxymyristicin was done using UPLC analysis as described for the estimation of 1′-sulfoxysafrole (Martati et al. [2011]). […] The gradient for analysis of the metabolite consisted of a mixture of ACN and ultrapure water containing 0.1 % (v/v) TFA. The flow rate was 0.6 ml/min, starting at 0 % ACN and increasing the percentage of ACN to 20 % over 0.2 min, followed by an increase to 30 % ACN over 4.3 min, then increasing to 100 % over 0.3 min, and keeping it at 100 % for 0.2 min, and finally decreasing to 0 % over 0.2 min and keeping it at 0 % for 0.8 min. Separation and purification of the GSH adduct of 1′-sulfoxymyristicin was performed by collecting the peak of the metabolite from the UPLC column. […]

[3] = Sulfonation of 1′-hydroxymyristicin, male rat liver S9; settings: S9 protein yield 143 mg/g liver
Method: as §1, §2

C=CC(O)c1cc(OC)c2c(c1)OCO2 (stereo not drawn) [1′-Hydroxymyristicin, 1′-hydroxymyristicin]
oxidation, fold lower affinity in rat than in human [1]: 1.8 fold
k Scaled [2]: 0.14 ml/hr/g tissue
k Scaled [3]: 0.15 ml/hr/g tissue
